Measured values as given in patent US12514907B2, “Treatment of exercise-induced hypoglycemia in type 1 and insulin using type 2 diabetes” (Xeris Pharmaceuticals, Inc., priority 2017, dated 2026).

Tests used:
[1] = test system: patients with T1D; test: Plasma glucose (YSI analyzer) during exercise/early recovery and post meal, randomized 4-period crossover trial; format: in vivo, human
Excerpt: Visit Schedule. (1) Screening/Baseline Visit. This visit will be used to assess eligibility and can include determination of VO2 max for fitness evaluation and for the determination of exercise intensity for the study. (2) Randomized Crossover Trial. Each participant will undergo four aerobic exercise sessions (in random order), with different strategies for glucose regulation that include: (i) Control: Fasted exercise, no basal insulin reduction; (ii) Strategy 1: Fasted exercise, basal insulin reduction only (50% reduction in basal rate five minutes before exercise, for the duration of the exercise); (iii) Strategy 2: Fasted exercise, no basal adjustment+pre-exercise glucose tabs (buccal route-40 grams in total); (iv) Strategy 3: Fasted exercise, no basal adjustment+pre-exercise mini-dose glucagon (sc). In all 4 sessions, aerobic exercise will be performed in the fasted state (before a standardized meal) for 45 minutes at ˜50-55% of the participant's predetermined aerobic capacity. The strategies for select sessions will be blinded. Sample collection. Blood samples collected through a venous catheter with plasma glucose measured by an YSI analyzer. Blood samples will be collected at: Baseline (at −30, −15, −5, 0 min), During exercise (at 5, 10, 15, 25, 35, 45 min), In recovery post exercise (at 50, 55, 60, 75 min), Regularly following a standardized mixed meal for 90 minutes (at 90, 105, 120, 135, and 165 min). Plasma from the collected blood samples will be used to measure the following hormones, proinflammatory markers and metabolites at baseline, during exercise, in recovery post exercise, and regularly following the standardized mixed meal: Insulin, Glucagon, Cortisol, Growth hormone, Catecholamines (epinephrine and norepinephrine), Interleukin-6, tumor necrosis factor-α, Nonesterified fatty acids, β-hydroxybutyrate, and/or Lactate. […]

[2] = test system: patients with T1D; test: CGM metrics after exercise session, randomized 4-period crossover trial of mini-dose glucagon in T1D; format: in vivo, human; conditions: no statistically significant differences
Excerpt: Visit Schedule. (1) Screening/Baseline Visit. This visit will be used to assess eligibility and can include determination of VO2 max for fitness evaluation and for the determination of exercise intensity for the study. (2) Randomized Crossover Trial. Each participant will undergo four aerobic exercise sessions (in random order), with different strategies for glucose regulation that include: (i) Control: Fasted exercise, no basal insulin reduction; (ii) Strategy 1: Fasted exercise, basal insulin reduction only (50% reduction in basal rate five minutes before exercise, for the duration of the exercise); (iii) Strategy 2: Fasted exercise, no basal adjustment+pre-exercise glucose tabs (buccal route-40 grams in total); (iv) Strategy 3: Fasted exercise, no basal adjustment+pre-exercise mini-dose glucagon (sc). In all 4 sessions, aerobic exercise will be performed in the fasted state (before a standardized meal) for 45 minutes at ˜50-55% of the participant's predetermined aerobic capacity. The strategies for select sessions will be blinded. The day before each exercise session participants will: Insert new insulin infusion set into abdomen or upper buttock (ensure not in exercising limb); For CGM users, insert a new CGM sensor; For non-CGM users, come into clinic to have a CGM sensor inserted to use with a blinded receiver. For participants using the blinded CGM, the sensor will be removed at 12:00 PM the next day at home (˜24 hours after the end of exercise). The participant will bring the device to the next visit or mail it back to the clinic. Participants will receive a phone call the day after each exercise session to elicit any adverse events. For CGM users, the CGM data will be downloaded at each visit and arrangements made to transmit the data following the last exercise session. The participant's insulin pump will be downloaded at each visit and arrangements made to transmit the data following the last exercise session. Subjects aged 18-<65 years with a duration of T1D ≥2 years, a random C-peptide <0.6 ng/ml, that use CSII (Insulin pump) for at least 6 months, with no plans to discontinue pump use during the study and exercise regularly, ≥30 minutes moderate or more vigorous aerobic activity X≥3 times/week were randomized in a 4-period crossover trial. The control was no basal insulin adjustment, no carbs unless glucose <70 mg/dL (then 20 g dextrose given). Basal Rate Reduction: Basal rate decreased by 50% 5 minutes before start of exercise (basal rate returned to usual rate at end of exercise). Glucose Tabs: Dextrose tabs orally (20 grams) 5 min before start of exercise and 20 grams again at 30 min after start. Mini-Dose Glucagon: Glucagon (150 μg) 5 min before start of exercise (SQ-abdomen). Exercise consisted of moderate intensity aerobic activity (treadmill brisk uphill walking) performed at 50-55% VO2 max for 45 min. Performed in fasted state. Same workload performed at each exercise session. Exercise was terminated if: glucose <70 mg/dL (participant treated for hypo) and/or participant experienced dizziness, pallor and other symptoms of poor perfusion and/or exercise intolerance. Following each exercise session, participants rested for 30 min and then consumed a standardized meal. Meal contained 44-50 grams of carbohydrate (55% of calories from carbohydrate, 20% from protein, and 25% from fat). Insulin is administered as pump bolus 5 min before standardized meal using participants own carbohydrate ratio with correction only if glucose ≥270 mg/dL.

[3] = late recovery period (standard meal to noon the day after exercise session), mean
[4] = late recovery period (standard meal to noon the day after exercise session), median
[5] = overnight (midnight to 6 am the day after exercise session), mean
[6] = overnight (midnight to 6 am the day after exercise session), median

glucagon [MDG]
post-intervention hyperglycemia ([1]; compared with ingestion of carbohydrate): less post-intervention hyperglycemia than ingestion of carbohydrate
reducing exercise-induced hypoglycemia ([1]; compared with insulin reduction): more effective than insulin reduction
frequency of a drop in glucose concentration ([1]; given just before aerobic exercise, people with type 1 diabetes): reduces the frequency of a drop in glucose concentration
% of time 70-180 mg/dL-mean [2, 3]: 66%
% of time <70 mg/dl-mean [2, 3]: 7%
Coefficient of Variation-median [2, 4]: 34%
Mean Glucose, mg/dL-median [2, 4]: 150 mg/dL
Nadir Glucose, mg/dL-median [2, 4]: 51 mg/dL
% of time 70-180 mg/dl-mean [2, 5]: 59%
% of time <70 mg/dl-mean [2, 5]: 4%
Coefficient of Variation-median [2, 6]: 21%
Mean Glucose, mg/dl-median [2, 6]: 156 mg/dL
Nadir Glucose, mg/dL-median [2, 6]: 91 mg/dL
Occurrence of Hypoglycemia (<70 mg/dL)-% ([2]; overnight (midnight to 6 am the day after exercise session)): 23%
